Test results reported in patent publication US8183415B2, “Methods of synthesizing cinacalcet and salts thereof” (Amgen, Inc., priority 2007, dated 2012).
Counter-ions that a name gives are not always drawn.

Assays:
[1] = molecular target: T1, calcium-sensing receptor (Homo sapiens, UniProt P41180); settings: patients with parathyroid carcinoma; cited from earlier work
T1 construct: a calcium-sensing receptor on the cell surface of the parathyroid gland; from tissue; host or cells: parathyroid gland of patients (in vivo, clinical use)
T1 sequence (P41180 20-1078): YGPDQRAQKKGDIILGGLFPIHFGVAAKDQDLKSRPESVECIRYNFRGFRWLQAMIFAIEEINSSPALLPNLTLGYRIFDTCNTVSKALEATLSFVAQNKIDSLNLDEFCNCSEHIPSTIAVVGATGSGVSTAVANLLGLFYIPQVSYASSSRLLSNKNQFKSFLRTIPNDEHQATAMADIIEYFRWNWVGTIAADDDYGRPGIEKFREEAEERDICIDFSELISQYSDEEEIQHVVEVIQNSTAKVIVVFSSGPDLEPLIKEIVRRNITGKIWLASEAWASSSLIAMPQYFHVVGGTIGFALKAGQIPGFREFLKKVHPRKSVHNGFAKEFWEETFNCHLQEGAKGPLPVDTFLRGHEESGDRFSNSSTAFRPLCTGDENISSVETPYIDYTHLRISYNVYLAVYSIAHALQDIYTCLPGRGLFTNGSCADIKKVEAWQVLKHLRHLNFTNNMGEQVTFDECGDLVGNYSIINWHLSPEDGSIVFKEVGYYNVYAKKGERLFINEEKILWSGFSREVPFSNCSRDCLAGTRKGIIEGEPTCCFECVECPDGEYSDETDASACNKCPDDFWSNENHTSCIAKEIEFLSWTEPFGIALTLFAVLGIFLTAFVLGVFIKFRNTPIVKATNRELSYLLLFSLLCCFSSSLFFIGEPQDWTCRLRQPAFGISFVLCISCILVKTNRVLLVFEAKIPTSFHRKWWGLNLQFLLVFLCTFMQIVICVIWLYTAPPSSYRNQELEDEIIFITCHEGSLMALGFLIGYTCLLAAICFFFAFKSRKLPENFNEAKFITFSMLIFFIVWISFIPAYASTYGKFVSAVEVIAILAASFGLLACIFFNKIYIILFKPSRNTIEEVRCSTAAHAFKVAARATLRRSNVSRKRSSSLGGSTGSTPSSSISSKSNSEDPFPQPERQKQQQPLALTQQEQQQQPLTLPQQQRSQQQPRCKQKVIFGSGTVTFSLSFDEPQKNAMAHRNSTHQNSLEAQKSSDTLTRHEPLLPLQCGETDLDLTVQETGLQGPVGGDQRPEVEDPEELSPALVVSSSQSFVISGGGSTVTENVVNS

[2] = molecular target: T1, calcium-sensing receptor; settings: patients with chronic kidney disease on dialysis with secondary hyperparathyroidism; cited from earlier work

C[C@@H](NCCCc1cccc(C(F)(F)F)c1)c1cccc2ccccc12.Cl [Form II]
stability of crystalline form (at room temperature): unstable

C[C@@H](NCCCc1cccc(C(F)(F)F)c1)c1cccc2ccccc12 [Sensipar, N-[1-(R)-(−)-(1-naphthyl)ethyl]-3-[3-(trifluoromethyl)phenyl]-1-aminopropane hydrochloride]
effect on calcium levels [1]: reduce high levels of calcium
therapeutic efficacy [2]: therapeutically effective

C[C@@H](NCCCc1cccc(C(F)(F)F)c1)c1cccc2ccccc12.Cl [Form III]
thermodynamic stability of crystalline form (variety of solvent systems and crystallization methods, XRPD): metastable form
